The experiment has as its system Radical scavenging activity. Put plainly: Antioxidant activity assessed as DPPH radical scavenging activity. The experiment is classed as functional.
As for `O=C(Cc1ccc(O)c(O)c1)c1ccc(O)cc1O`, the ED50 stood at 20 µM.
To `O=c1c(-c2ccc(O)cc2)coc2cc(O)c(O)cc12` belongs 29 µM; to `Cc1c(O)cc(C(=O)Cc2ccccc2)c(O)c1C`, 42 µM; to `COc1cc(-c2coc3cc(C)c(O)cc3c2=O)ccc1O`, 232 µM.
Consider `O=C(Cc1ccccc1)c1ccc(O)c(O)c1O`, for which the ED50 was determined as 32 µM.
To `COc1ccc(C2COc3c(ccc(O)c3O)C2)cc1` (stereo not given) belongs 36 µM; to `COc1cc(O)c(C(=O)Cc2ccc(O)c(O)c2)cc1OC`, 25 µM.
To `O=C(Cc1ccccc1)c1cc(O)c(O)cc1O` belongs 29 µM; to `COc1cc2c(cc1O)CC(c1ccccc1)CO2` (stereo not given), 49 µM.
To `COc1cc2c(cc1O)CC(c1ccc(O)cc1)CO2` (stereo not given) belongs 62 µM; to `Oc1ccc(C2COc3c(ccc(O)c3O)C2)cc1O` (stereo not given), 22 µM.
Turning to `COc1cc(-c2coc3cc(OC)c(OC)cc3c2=O)ccc1O`, the ED50 is 722 µM.
To `COc1cc(O)c(C(=O)Cc2ccc(OC)c(OC)c2)cc1O` belongs 39 µM; to `COc1cc2occ(-c3ccc(O)c(O)c3)c(=O)c2cc1OC`, 46 µM; to `Cc1ccc2c(=O)c(-c3ccc(O)c(O)c3)coc2c1O`, 46 µM.
In the case of `O=C(Cc1ccc(O)cc1)c1ccc(O)c(O)c1O`, the ED50 turned out to be 22 µM.
To `COc1cc(CC(=O)c2ccc(O)cc2O)ccc1O` belongs 180 µM; to `COc1cc(CC(=O)c2cc(O)c(C)cc2O)ccc1O`, 22 µM.
To `COc1ccc(C2COc3cc(OC)c(O)cc3C2)cc1` (stereo not given) belongs 60 µM; to `COc1cc(CC(=O)c2ccc(O)c(O)c2O)ccc1O`, 25 µM; to `COc1ccc(CC(=O)c2cc(O)c(C)c(C)c2O)cc1`, 93 µM.
To `COc1ccc(C2COc3c(ccc(OC)c3O)C2)cc1` (stereo not given) belongs 224 µM; to `COc1cc(-c2coc3cc(OC)c(O)cc3c2=O)ccc1O`, 404 µM.
As to `COc1ccc(CC(=O)c2ccc(O)c(O)c2O)cc1OC`, the ED50 was 63 µM.
To `COc1cc(CC(=O)c2ccc(OC)c(O)c2O)ccc1O` belongs 28 µM.
To `Oc1ccc(C2COc3cc(O)cc(O)c3C2)cc1` (stereo not given) belongs 32 µM; to `COc1cc(-c2coc3c(O)c(O)ccc3c2=O)ccc1O`, 33 µM; to `COc1ccc(CC(=O)c2cc(O)c(O)cc2O)cc1`, 32 µM.
To `COc1cc(O)c(C(=O)C(C)c2ccccc2)cc1O` (stereo not given) belongs 48 µM; to `COc1cc2c(cc1OC)OCC(c1ccc(O)c(O)c1)C2` (stereo not given), 69 µM; to `COc1cc(O)c(C(=O)Cc2ccccc2)cc1O`, 51 µM.
Regarding `COc1ccc(CC(=O)c2ccc(O)c(O)c2O)cc1`, the ED50 was determined as 38 µM.
To `CC(C(=O)c1ccc(O)c(O)c1O)c1ccccc1` (stereo not given) belongs 23 µM.
To `COc1ccc(CC(=O)c2cc(O)c(OC)cc2O)cc1` belongs 31 µM.
To `O=c1c(-c2ccccc2)coc2cc(O)c(O)cc12` belongs 44 µM; to `COc1ccc(-c2coc3c(O)c(O)ccc3c2=O)cc1`, 51 µM; to `COc1ccc2c(=O)c(-c3ccc(O)c(O)c3)coc2c1O`, 53 µM.
For `COc1cc(O)c(C(=O)C(C)c2ccc(O)cc2)cc1O` (stereo not given), the ED50 is 45 µM.
To `COc1ccc(C(=O)Cc2ccc(O)c(O)c2)c(O)c1O` belongs 20 µM; to `COc1cc2c(cc1O)OCC(c1ccc(O)cc1)C2` (stereo not given), 26 µM; to `Cc1cc2occ(-c3ccc(O)c(O)c3)c(=O)c2cc1O`, 23 µM.
To `COc1cc(CC(=O)c2cc(OC)c(O)cc2O)ccc1O` belongs 129 µM.
To `Cc1c(O)cc(C(=O)Cc2ccc(O)c(O)c2)c(O)c1C` belongs 18 µM.
With `Cc1c(O)cc2c(=O)c(-c3ccc(O)c(O)c3)coc2c1C`, the ED50 came out at 85 µM.
To `O=c1c(-c2ccccc2)coc2c(O)c(O)ccc12` belongs 29 µM.
To `COc1ccc(C2COc3cc(O)cc(O)c3C2)cc1` (stereo not given) belongs 26 µM; to `COc1ccc(-c2coc3cc(O)c(O)cc3c2=O)cc1`, 29 µM.
To `COc1cc(CC(=O)c2cc(O)c(OC)cc2O)ccc1O` belongs 26 µM; to `Oc1ccc(C2COc3c(ccc(O)c3O)C2)cc1` (stereo not given), 37 µM; to `COc1ccc(CC(=O)c2cc(O)c(C)cc2O)cc1`, 23 µM.
In the case of `O=C(Cc1ccc(O)c(O)c1)c1ccc(O)c(O)c1O`, the ED50 stood at 12 µM.
On to `COc1cc2c(cc1O)OCC(c1ccccc1)C2` (stereo not given), for which the ED50 came out at 29 µM.
To `COc1cc(-c2coc3cc(O)ccc3c2=O)ccc1O` belongs 805 µM; to `Cc1c(O)cc2c(c1C)OCC(c1ccccc1)C2` (stereo not given), 81 µM.
Take `Cc1c(O)cc(C(=O)Cc2ccc(O)cc2)c(O)c1C`: the ED50 came out at 33 µM.
For the compound `COc1ccc(C2COc3cc(O)c(OC)cc3C2)cc1` (stereo not given), the ED50 amounted to 26 µM.
To `COc1ccc(C2COc3c(ccc(C)c3O)C2)cc1` (stereo not given) belongs 52 µM; to `COc1ccc(-c2coc3cc(O)c(OC)cc3c2=O)cc1`, 663 µM; to `COc1ccc2c(c1O)OCC(c1ccccc1)C2` (stereo not given), 168 µM.
As to `COc1cc2occ(-c3ccc(O)c(O)c3)c(=O)c2cc1O`, the ED50 turned out to be 36 µM.
To `CC(C(=O)c1ccc(O)c(O)c1O)c1ccc(O)cc1` (stereo not given) belongs 18 µM; to `COc1cc2c(cc1O)CC(c1ccc(OC)c(OC)c1)CO2` (stereo not given), 56 µM; to `COc1ccc2c(=O)c(-c3ccccc3)coc2c1O`, 812 µM.
For the compound `COc1cc(O)c(C(=O)Cc2ccc(O)cc2)cc1O`, the ED50 stood at 38 µM.
To `Cc1cc(O)c(C(=O)Cc2ccc(O)cc2)cc1O` belongs 31 µM; to `COc1cc(-c2coc3c(O)c(C)ccc3c2=O)ccc1O`, 476 µM.
To `COc1ccc(C(=O)Cc2ccccc2)c(O)c1O` belongs 20 µM.
With `COc1ccc(C2COc3c(ccc(O)c3O)C2)cc1OC` (stereo not given), the ED50 is 105 µM.
To `O=C(Cc1ccc(O)cc1)c1cc(O)c(O)cc1O` belongs 27 µM; to `COc1cc(-c2coc3cc(O)c(OC)cc3c2=O)ccc1O`, 655 µM.
To `Cc1cc(O)c(C(=O)Cc2ccccc2)cc1O` belongs 43 µM.
To `Cc1cc(O)c(C(=O)Cc2ccc(O)c(O)c2)cc1O` belongs 20 µM.
In the case of `O=c1c(-c2ccc(O)cc2)coc2c(O)c(O)ccc12`, the ED50 turned out to be 34 µM.
To `Oc1ccc2c(c1O)OCC(c1ccccc1)C2` (stereo not given) belongs 37 µM.
To `COc1cc(-c2coc3c(O)c(OC)ccc3c2=O)ccc1O` belongs 228 µM; to `COc1ccc(C2COc3cc(C)c(O)cc3C2)cc1` (stereo not given), 45 µM.
To `COc1cc(CC(=O)c2cc(OC)c(OC)cc2O)ccc1O` belongs 84 µM; to `COc1ccc(CC(=O)c2ccc(OC)c(O)c2O)cc1`, 44 µM.
As for `COc1cc(O)c(C(=O)Cc2ccc(O)c(O)c2)cc1O`, the ED50 was determined as 19 µM.
For the compound `Oc1ccc2c(c1)OCC(c1ccc(O)c(O)c1)C2` (stereo not given), the ED50 came to 37 µM.
Regarding `Cc1ccc2c(c1O)OCC(c1ccccc1)C2` (stereo not given), the ED50 is 61 µM.
To `O=c1c(-c2ccc(O)c(O)c2)coc2cc(O)ccc12` belongs 30 µM; to `COc1ccc(-c2coc3c(O)c(OC)ccc3c2=O)cc1`, 489 µM.
To `O=c1c(-c2ccc(O)c(O)c2)coc2c(O)c(O)ccc12` belongs 16 µM; to `Cc1ccc2c(c1O)OCC(c1ccc(O)cc1)C2` (stereo not given), 111 µM.

(Values after ChEMBL document CHEMBL1287646, “Chemometric modeling of free radical scavenging activity of flavone derivatives” (Eur J Med Chem, 2010).)
